Test results from patent publication US8916557B2, “Substituted 4-Aryl-N-phenyl-1,3,5-triazin-2-amines” (Bayer Intellectual Property GmbH, priority 2011, dated 2014).

Key:
CDK9/CycT1 = molecular target: T1, CDK9/CycT1 (Homo sapiens, UniProt P50750); experiment: CDK9/CycT1 kinase assay (TR-FRET); assay type: biochemical; details: Method 1, 10 μM ATP
T1 construct: Recombinant full-length His-tagged human CDK9 and CycT1; His; purchased Invitrogen PV4131; host or cells: insect cells
Excerpt: 1. CDK9/CycT1 Kinase Assay:
CDK9/CycT1-inhibitory activity of compounds of the present invention was quantified employing the CDK9/CycT1 TR-FRET assay as described in the following paragraphs:
Recombinant full-length His-tagged human CDK9 and CycT1, expressed in insect cells and purified by Ni-NTA affinity chromatography, were purchased from Invitrogen (Cat. No PV4131). As substrate for the kinase reaction biotinylated peptide biotin-Ttds-[…] (C-terminus in amid form) was used which can be purchased e.g. form the company JERINI Peptide Technologies (Berlin, Germany). For the assay 50 nl of a 100fold concentrated solution of the test compound in DMSO was pipetted into a black low volume 384well microtiter plate (Greiner Bio-One, Frickenhausen, Germany), 2 μl of a solution of CDK9/CycT1 in aqueous assay buffer [50 mM Tris/HCl pH 8.0, 10 mM MgCl2, 1.0 mM dithiothreitol, 0.1 mM sodium ortho-vanadate, 0.01% (v/v) Nonidet-P40 (Sigma)] were added and the mixture was incubated for 15 min at 22° C. to allow pre-binding of the test compounds to the enzyme before the start of the kinase reaction. Then the kinase reaction was started by the addition of 3 μl of a solution of adenosine-tri-phosphate (ATP, 16.7 μM=>final conc. in the 5 μl assay volume is 10 μM) and substrate (1.67 μM=>final conc. in the 5 μl assay volume is 1 μM) in assay buffer and the resulting mixture was incubated for a reaction time of 25 min at 22° C. The concentration of CDK9/CycT1 was adjusted depending of the activity of the enzyme lot and was chosen appropriate to have the assay in the linear range, typical concentrations were in the range of 1 μg/ml. The reaction was stopped by the addition of 5 μl of a solution of TR-FRET detection reagents (0.2 μM streptavidine-XL665 [Cisbio Bioassays, Codolet, France] and 1 nM anti-RB(pSer807/pSer811)-antibody from BD Pharmingen [#558389] and 1.2 nM LANCE EU-W1024 labeled anti-mouse IgG antibody [Perkin-Elmer, product no. AD0077]) in an aqueous EDTA-solution (100 mM EDTA, 0.2% (w/v) bovine serum albumin in 100 mM HEPES/NaOH pH 7.0).
(§1) The resulting mixture was incubated 1 h at 22° C. to allow the formation of complex between the phosphorylated biotinylated peptide and the detection reagents. Subsequently the amount of phosphorylated substrate was evaluated by measurement of the resonance energy transfer from the Eu-chelate to the streptavidine-XL. Therefore, the fluorescence emissions at 620 nm and 665 nm after excitation at 350 nm was measured in a HTRF reader, e.g. a Rubystar (BMG Labtechnologies, Offenburg, Germany) or a Viewlux (Perkin-Elmer). The ratio of the emissions at 665 nm and at 622 nm was taken as the measure for the amount of phosphorylated substrate.

CDK2/CycE = molecular target: T2, CDK2/CycE (Homo sapiens, UniProt P24941); experiment: CDK2/CycE kinase assay (TR-FRET); assay type: biochemical; details: Method 2, 10 μM ATP
T2 construct: GST; purchased ProQinase GmbH (Freiburg, Germany); host or cells: insect cells (Sf9)
Excerpt: 2. CDK2/CycE Kinase Assay:
CDK2/CycE-inhibitory activity of compounds of the present invention was quantified employing the CDK2/CycE TR-FRET assay as described in the following paragraphs:
Recombinant fusion proteins of GST and human CDK2 and of GST and human CycE, expressed in insect cells (Sf9) and purified by Glutathion-Sepharose affinity chromatography, were purchased from ProQinase GmbH (Freiburg, Germany). As substrate for the kinase reaction biotinylated peptide biotin-Ttds-[…] (C-terminus in amid form) was used which can be purchased e.g. form the company JERINI Peptide Technologies (Berlin, Germany).
For the assay 50 nl of a 100fold concentrated solution of the test compound in DMSO was pipetted into a black low volume 384well microtiter plate (Greiner Bio-One, Frickenhausen, Germany), 2 μl of a solution of CDK2/CycE in aqueous assay buffer [50 mM Tris/HCl pH 8.0, 10 mM MgCl2, 1.0 mM dithiothreitol, 0.1 mM sodium ortho-vanadate, 0.01% (v/v) Nonidet-P40 (Sigma)] were added and the mixture was incubated for […] at 22° C. to allow pre-binding of the test compounds to the enzyme before the start of the kinase reaction. Then the kinase reaction was started by the addition of 3 μl of a solution of adenosine-tri-phosphate (ATP, 16.7 μM=>final conc. in the 5 it assay volume is 10 μM) and substrate (1.25 μM=>final conc. in the 5 it assay volume is 0.75 μM) in assay buffer and the resulting mixture was incubated for a reaction time of […] at 22° C. The concentration of CDK2/CycE was adjusted depending of the activity of the enzyme lot and was chosen appropriate to have the assay in the linear range, typical concentrations were in the range of 130 ng/ml. The reaction was stopped by the addition of 5 it of a solution of TR-FRET detection reagents (0.2 μM streptavidine-XL665 [Cisbio Bioassays, Codolet, France] and 1 nM anti-RB(pSer807/pSer811)-antibody from BD Pharmingen [#558389] and 1.2 nM LANCE EU-W1024 labeled anti-mouse IgG antibody [Perkin-Elmer, product no. AD0077]) in an aqueous EDTA-solution (100 mM EDTA, 0.2% (w/v) bovine serum albumin in 100 mM HEPES/NaOH pH 7.0).
as §1, with “TR-FRET” for “HTRF”

T1 sequence (P50750 whole entry): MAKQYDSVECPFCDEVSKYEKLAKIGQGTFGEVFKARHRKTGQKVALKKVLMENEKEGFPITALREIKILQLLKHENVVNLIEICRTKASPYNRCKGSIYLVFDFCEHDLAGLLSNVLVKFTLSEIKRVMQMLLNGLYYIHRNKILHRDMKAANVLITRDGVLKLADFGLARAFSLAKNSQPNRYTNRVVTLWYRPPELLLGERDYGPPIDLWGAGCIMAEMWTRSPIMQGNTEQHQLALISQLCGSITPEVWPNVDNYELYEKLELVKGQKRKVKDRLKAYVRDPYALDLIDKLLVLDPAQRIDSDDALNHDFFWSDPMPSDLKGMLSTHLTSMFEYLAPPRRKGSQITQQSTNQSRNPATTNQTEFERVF
T1 sequence (O60563 whole entry partner): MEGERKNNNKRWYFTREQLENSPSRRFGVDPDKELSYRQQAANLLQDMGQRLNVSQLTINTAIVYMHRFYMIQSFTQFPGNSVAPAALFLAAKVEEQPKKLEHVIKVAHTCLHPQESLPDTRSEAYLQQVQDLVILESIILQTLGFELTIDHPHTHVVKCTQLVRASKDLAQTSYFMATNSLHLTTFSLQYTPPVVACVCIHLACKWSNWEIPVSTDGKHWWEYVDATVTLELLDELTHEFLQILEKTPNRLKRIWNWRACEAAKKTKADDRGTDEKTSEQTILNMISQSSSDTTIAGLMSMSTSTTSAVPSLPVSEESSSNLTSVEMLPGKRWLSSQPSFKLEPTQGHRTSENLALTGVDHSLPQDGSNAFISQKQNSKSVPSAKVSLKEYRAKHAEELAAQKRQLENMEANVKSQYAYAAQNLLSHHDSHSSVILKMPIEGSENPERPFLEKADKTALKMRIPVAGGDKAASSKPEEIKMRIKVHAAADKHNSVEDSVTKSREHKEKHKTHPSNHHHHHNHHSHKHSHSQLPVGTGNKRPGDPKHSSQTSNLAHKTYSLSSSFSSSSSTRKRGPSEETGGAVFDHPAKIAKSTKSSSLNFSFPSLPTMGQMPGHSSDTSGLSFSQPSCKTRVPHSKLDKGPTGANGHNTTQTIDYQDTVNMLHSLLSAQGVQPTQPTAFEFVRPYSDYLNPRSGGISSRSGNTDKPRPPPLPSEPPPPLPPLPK

Structure (SMILES)	IC50 (CDK9/CycT1) [nM]	IC50 (CDK2/CycE) [nM]
CS(=O)(=O)Cc1cccc(Nc2ncnc(-c3cccc4c3OC(F)(F)O4)n2)c1 [Example 6, 4-(2,2-Difluoro-1,3-benzodioxol-4-yl)-N-{3-[(methylsulfonyl)methyl]phenyl}-1,3,5-triazin-2-amine]	33	1300
CS(=O)(=O)Cc1cccc(Nc2ncnc(-c3ccccc3OCC(F)(F)F)n2)c1 [Example 16, N-{3-[(Methylsulfonyl)methyl]phenyl}-4-[2-(2,2,2-trifluoroethoxy)phenyl]-1,3,5-triazin-2-amine]	74	8300
CS(=O)(=O)Cc1cccc(Nc2ncnc(-c3cccc4c3OC(F)(F)C(F)(F)O4)n2)c1 [Example 19, N-{3-[(Methylsulfonyl)methyl]phenyl}-4-(2,2,3,3-tetrafluoro-2,3-dihydro-1,4-benzodioxin-5-yl)-1,3,5-triazin-2-amine]	35	640
COc1ncccc1-c1ncnc(Nc2cccc(CS(C)(=O)=O)c2)n1 [Example 20, 4-(2-Methoxypyridin-3-yl)-N-{3-[(methylsulfonyl)methyl]phenyl}-1,3,5-triazin-2-amine]	110	8200
CS(=O)(=O)Cc1cccc(Nc2ncnc(-c3cc(F)ccc3OCC3CCOCC3)n2)c1 [Example 21, 4-[5-Fluoro-2-(tetrahydro-2H-pyran-4-ylmethoxy)phenyl]-N-{3-[(methylsulfonyl)methyl]phenyl}-1,3,5-triazin-2-amine]	110	8800
CS(=O)(=O)Cc1cccc(Nc2ncnc(-c3ccccc3OCc3ccccc3Cl)n2)c1 [Example 27, 4-{2-[(2-Chlorobenzyl)oxy]phenyl}-N-{3-[(methylsulfonyl)methyl]phenyl}-1,3,5-triazin-2-amine]	87	8800
CS(=O)(=O)Cc1cccc(Nc2ncnc(-c3cc(F)ccc3OCc3ccccc3F)n2)c1 [Example 30, 4-{5-Fluoro-2-[(2-fluorobenzyl)oxy]phenyl}-N-{3-[(methylsulfonyl)methyl]phenyl}-1,3,5-triazin-2-amine]	32	6600

Further lines, results first:

IC50 (CDK9/CycT1) [nM]	IC50 (CDK2/CycE) [nM]	Structure (SMILES)
160	8600	COc1c(-c2ncnc(Nc3cccc(CS(C)(=O)=O)c3)n2)ccc(F)c1F [Example 2, 4-(3,4-Difluoro-2-methoxyphenyl)-N-{3-[(methylsulfonyl)methyl]phenyl}-1,3,5-triazin-2-amine]
25	1400	CC(C)Oc1cc(F)ccc1-c1ncnc(Nc2cccc(CS(C)(=O)=O)c2)n1 [Example 5, 4-[4-Fluoro-2-(propan-2-yloxy)phenyl]-N-{3-[(methylsulfonyl)methyl]phenyl}-1,3,5-triazin-2-amine]
330	5400	CS(=O)(=O)Cc1cccc(Nc2ncnc(-c3ccccc3OC(F)(F)F)n2)c1 [Example 7, N-{3-[(Methylsulfonyl)methyl]phenyl}-4-[2-(trifluoromethoxy)phenyl]-1,3,5-triazin-2-amine]
33	1300	COc1ccc(F)cc1-c1ncnc(Nc2cccc(CS(C)(=O)=O)c2)n1 [Example 11, 4-(5-Fluoro-2-methoxyphenyl)-N-{3-[(methylsulfonyl)methyl]phenyl}-1,3,5-triazin-2-amine]
130	3900	CS(=O)(=O)Cc1cccc(Nc2ncnc(-c3ccc(F)cc3OC(F)F)n2)c1 [Example 15, 4-[2-(Difluoromethoxy)-4-fluorophenyl]-N-{3-[(methylsulfonyl)methyl]phenyl}-1,3,5-triazin-2-amine]
47	2000	COc1cc(F)ccc1-c1ncnc(Nc2cccc(CS(=O)(=O)C(C)(C)C)c2)n1 [Example 17, N-{3-[(tert-Butylsulfonyl)methyl]phenyl}-4-(4-fluoro-2-methoxyphenyl)-1,3,5-triazin-2-amine]
25	2300	COc1cc(Cl)ccc1-c1ncnc(Nc2cccc(CS(C)(=O)=O)c2)n1 [Example 32, 4-(4-Chloro-2-methoxyphenyl)-N-{3-[(methylsulfonyl)methyl]phenyl}-1,3,5-triazin-2-amine]
